Three compounds from PMC4774911, “Biochemical Screening of Five Protein Kinases from Plasmodium falciparum against 14,000 Cell-Active Compounds” (PLoS ONE, 2016) can be followed below.

Each structure is given as a SMILES string. Values joined by “and” are separate entries in the source; they are usually repeats but may differ in a detail not shown here. Equal values may be shown once. A value given as a limit tells only on which side of the number the result lay.

Among the targets are RPS6KA3 (Homo sapiens, UniProt P51812); DSTYK (Homo sapiens, UniProt Q6XUX3); MAP4K4 (Homo sapiens, UniProt O95819); MKNK1 (Homo sapiens, UniProt Q9BUB5).
Experiment in all cases: biochemical
A further test addresses T1, STK4 (Homo sapiens, UniProt Q13043).
T1 sequence (Q13043 1-487): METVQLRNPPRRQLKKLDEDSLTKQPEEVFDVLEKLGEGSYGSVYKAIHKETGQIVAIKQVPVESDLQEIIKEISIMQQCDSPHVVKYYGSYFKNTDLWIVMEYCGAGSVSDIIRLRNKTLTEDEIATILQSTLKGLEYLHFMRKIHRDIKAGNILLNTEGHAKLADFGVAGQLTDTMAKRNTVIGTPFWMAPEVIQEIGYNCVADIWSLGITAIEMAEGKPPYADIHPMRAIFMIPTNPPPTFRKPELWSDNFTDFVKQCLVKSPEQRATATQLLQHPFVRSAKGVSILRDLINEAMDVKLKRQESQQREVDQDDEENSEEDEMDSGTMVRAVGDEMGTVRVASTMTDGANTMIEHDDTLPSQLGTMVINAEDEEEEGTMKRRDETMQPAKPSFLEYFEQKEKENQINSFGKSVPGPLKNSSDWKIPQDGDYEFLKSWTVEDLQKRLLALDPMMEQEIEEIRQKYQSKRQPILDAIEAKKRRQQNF

The target in another test is T2, TAOK2 (Homo sapiens, UniProt Q9UL54).
T2 sequence (Q9UL54 1-1235): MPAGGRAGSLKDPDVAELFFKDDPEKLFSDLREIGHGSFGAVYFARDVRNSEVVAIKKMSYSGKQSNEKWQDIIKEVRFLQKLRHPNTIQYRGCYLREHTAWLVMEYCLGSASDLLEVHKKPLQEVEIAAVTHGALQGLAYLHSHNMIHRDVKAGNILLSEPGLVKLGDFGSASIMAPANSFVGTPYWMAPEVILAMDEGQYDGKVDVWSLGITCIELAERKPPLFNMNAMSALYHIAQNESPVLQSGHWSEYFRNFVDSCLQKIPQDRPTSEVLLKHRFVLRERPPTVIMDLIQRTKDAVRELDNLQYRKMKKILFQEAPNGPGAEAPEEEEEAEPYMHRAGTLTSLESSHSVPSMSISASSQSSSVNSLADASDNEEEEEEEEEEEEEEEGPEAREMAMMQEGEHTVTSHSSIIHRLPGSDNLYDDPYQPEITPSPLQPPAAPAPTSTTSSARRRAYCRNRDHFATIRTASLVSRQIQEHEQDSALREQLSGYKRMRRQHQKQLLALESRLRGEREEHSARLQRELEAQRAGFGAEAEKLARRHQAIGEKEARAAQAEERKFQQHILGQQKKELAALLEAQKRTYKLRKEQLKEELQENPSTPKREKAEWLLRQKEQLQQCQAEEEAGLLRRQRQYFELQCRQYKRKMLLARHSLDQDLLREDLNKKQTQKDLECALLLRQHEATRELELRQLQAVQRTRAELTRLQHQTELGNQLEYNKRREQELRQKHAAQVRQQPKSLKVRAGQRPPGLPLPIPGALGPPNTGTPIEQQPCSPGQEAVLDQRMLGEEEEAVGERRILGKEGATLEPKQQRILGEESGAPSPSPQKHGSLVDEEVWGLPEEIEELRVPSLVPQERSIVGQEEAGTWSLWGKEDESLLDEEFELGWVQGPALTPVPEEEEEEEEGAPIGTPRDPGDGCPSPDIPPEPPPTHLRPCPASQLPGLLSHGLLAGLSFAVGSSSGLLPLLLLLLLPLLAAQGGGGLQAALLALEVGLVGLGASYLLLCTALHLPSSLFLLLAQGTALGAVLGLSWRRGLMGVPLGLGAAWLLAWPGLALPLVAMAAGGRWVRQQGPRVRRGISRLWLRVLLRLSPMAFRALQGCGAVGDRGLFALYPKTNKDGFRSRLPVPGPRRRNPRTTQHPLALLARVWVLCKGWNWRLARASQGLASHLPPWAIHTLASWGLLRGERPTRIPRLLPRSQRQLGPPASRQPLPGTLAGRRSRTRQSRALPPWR

A further test has as its target T3, MARK4 (Homo sapiens, UniProt Q96L34).
T3 sequence (Q96L34 1-752): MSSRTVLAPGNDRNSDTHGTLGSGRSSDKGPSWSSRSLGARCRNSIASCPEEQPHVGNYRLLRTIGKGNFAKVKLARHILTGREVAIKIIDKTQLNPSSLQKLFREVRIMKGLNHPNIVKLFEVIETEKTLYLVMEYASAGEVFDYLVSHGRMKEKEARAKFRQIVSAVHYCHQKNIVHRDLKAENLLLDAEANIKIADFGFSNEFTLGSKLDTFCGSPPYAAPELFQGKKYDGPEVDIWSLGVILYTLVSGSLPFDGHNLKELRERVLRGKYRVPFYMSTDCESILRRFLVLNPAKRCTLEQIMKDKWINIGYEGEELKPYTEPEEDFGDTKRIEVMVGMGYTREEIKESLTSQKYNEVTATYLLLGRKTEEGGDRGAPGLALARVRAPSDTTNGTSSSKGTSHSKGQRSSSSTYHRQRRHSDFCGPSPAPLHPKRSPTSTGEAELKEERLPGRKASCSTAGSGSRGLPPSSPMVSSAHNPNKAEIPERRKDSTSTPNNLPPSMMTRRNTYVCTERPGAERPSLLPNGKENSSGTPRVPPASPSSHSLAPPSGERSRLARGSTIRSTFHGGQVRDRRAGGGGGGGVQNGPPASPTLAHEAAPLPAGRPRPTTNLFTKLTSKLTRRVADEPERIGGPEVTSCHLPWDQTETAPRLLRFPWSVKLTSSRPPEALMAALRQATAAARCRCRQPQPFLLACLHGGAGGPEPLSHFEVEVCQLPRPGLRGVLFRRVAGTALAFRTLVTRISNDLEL

RPS6KA3, sequence (P51812 whole entry): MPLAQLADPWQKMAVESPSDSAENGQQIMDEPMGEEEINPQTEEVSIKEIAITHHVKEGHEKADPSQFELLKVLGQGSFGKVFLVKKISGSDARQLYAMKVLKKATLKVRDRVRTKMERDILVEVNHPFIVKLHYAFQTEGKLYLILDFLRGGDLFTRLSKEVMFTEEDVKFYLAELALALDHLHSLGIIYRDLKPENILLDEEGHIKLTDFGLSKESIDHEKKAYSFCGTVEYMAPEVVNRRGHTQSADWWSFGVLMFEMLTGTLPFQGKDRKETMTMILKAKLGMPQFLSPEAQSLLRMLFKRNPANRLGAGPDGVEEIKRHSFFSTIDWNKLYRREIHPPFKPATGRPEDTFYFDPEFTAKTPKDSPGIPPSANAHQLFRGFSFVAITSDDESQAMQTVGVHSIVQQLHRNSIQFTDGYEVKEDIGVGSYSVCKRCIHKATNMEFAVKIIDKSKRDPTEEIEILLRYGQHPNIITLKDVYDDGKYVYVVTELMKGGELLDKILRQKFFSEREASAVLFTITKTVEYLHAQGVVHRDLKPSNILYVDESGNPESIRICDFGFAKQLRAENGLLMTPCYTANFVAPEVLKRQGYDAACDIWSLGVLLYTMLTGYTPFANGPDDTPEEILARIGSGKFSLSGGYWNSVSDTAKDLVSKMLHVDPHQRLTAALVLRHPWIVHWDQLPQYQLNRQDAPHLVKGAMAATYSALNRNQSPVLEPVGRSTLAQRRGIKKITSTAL
MAP4K4, sequence (O95819 whole entry): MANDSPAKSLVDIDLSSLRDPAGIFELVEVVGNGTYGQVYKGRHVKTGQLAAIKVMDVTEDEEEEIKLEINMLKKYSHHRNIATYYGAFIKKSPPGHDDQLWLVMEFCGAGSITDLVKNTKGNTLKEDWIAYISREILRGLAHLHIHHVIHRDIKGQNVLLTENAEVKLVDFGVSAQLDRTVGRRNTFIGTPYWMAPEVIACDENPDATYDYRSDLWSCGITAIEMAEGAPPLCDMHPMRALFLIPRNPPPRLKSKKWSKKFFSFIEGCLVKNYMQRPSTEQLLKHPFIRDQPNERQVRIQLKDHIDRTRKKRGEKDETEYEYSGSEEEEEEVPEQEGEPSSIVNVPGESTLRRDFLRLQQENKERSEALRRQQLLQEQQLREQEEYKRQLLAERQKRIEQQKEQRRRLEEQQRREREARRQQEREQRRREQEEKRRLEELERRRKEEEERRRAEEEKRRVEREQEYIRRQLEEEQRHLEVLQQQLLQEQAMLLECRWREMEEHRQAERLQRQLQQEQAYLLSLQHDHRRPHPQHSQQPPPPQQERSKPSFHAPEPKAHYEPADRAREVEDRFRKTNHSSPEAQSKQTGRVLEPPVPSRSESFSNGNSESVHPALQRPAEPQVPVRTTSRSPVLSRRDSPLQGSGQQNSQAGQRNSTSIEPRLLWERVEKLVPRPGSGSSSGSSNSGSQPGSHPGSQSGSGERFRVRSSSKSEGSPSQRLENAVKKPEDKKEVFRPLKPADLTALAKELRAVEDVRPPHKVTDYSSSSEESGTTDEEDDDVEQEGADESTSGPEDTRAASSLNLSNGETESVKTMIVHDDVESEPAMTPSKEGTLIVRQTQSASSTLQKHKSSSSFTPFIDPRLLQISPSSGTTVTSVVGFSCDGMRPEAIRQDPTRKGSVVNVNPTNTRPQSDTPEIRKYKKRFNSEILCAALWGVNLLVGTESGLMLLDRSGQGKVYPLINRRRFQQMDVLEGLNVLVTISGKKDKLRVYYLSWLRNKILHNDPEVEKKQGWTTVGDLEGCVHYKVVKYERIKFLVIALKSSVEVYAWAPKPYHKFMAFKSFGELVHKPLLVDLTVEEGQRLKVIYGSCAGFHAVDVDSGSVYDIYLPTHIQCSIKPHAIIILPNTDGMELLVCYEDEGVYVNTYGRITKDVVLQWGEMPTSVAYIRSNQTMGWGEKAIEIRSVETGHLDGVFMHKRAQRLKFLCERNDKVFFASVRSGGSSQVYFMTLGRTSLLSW
DSTYK, sequence (Q6XUX3 whole entry): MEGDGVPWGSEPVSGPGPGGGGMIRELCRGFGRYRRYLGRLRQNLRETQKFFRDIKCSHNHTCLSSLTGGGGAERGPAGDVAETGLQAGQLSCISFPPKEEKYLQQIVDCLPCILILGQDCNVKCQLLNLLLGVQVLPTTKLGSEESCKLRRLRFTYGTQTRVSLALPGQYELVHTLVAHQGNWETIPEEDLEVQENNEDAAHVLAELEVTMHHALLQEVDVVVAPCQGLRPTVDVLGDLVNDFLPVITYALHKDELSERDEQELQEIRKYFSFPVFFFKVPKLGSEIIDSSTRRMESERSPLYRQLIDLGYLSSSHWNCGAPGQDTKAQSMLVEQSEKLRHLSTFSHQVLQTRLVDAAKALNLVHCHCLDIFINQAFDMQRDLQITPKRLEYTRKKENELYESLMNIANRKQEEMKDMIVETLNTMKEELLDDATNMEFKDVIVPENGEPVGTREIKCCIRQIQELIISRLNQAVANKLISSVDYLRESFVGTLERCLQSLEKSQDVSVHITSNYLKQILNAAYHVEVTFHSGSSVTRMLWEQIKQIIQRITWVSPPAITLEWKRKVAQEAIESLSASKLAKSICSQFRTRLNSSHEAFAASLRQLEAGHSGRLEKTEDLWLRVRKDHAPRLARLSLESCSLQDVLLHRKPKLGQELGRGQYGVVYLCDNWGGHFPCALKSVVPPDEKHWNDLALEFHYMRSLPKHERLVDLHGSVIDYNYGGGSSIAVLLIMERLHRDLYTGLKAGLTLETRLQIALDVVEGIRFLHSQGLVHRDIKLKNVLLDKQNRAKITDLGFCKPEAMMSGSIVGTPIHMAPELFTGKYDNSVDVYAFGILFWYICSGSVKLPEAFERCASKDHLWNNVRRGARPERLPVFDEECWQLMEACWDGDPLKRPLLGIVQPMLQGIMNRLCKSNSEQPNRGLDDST
MKNK1, sequence (Q9BUB5 whole entry): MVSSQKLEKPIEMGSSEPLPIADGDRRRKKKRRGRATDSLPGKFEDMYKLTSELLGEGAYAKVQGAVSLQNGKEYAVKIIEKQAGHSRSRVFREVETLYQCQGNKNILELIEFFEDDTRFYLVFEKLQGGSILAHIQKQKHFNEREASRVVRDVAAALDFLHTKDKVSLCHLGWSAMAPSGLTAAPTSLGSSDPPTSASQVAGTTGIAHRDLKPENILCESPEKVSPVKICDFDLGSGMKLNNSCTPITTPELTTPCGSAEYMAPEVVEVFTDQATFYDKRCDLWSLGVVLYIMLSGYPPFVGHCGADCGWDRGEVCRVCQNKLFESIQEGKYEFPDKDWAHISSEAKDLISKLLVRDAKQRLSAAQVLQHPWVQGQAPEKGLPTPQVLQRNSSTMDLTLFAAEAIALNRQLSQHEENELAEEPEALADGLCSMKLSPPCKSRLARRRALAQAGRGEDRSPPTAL

One may read the IC50 as the concentration at which inhibition is half-maximal. Lower therefore signals inhibition by little substance. For `CN1CCN(c2ccc(Nc3ncc(C#N)c(Nc4ccccc4C(N)=O)n3)cc2)CC1.Cl` [TCMDC-134116], the concentration for half-maximal inhibition (IC50) against RPS6KA3 was 0.089 µM and 0.12 µM; at STK4, 0.19 µM and 0.22 µM; on TAOK2 it was 0.4 µM.
Consider `Cl.NCC1(c2nc(-c3ccc(Cl)c(O)c3)c(-c3ccncc3)[nH]2)CCCCC1` [TCMDC-141154], for which the IC50 against DSTYK is greater than 20 µM; against MAP4K4 it was 1.5 µM and 0.95 µM; on MARK4 it was greater than 20 µM; at MKNK1, greater than 20 µM; on RPS6KA3, greater than 20 µM; at STK4, greater than 20 µM.
Consider `CN(C)CC(O)COc1ccc(Nc2ncc([N+](=O)[O-])c(Nc3ccccc3O)n2)cc1.O=C(O)C(F)(F)F` (centres unmarked) [TCMDC-141399], for which the half-inhibitory concentration (IC50) is greater than 20 µM against DSTYK; 1.8 µM and 1.2 µM at MAP4K4; 12 µM and 7.6 µM at MARK4; greater than 20 µM on MKNK1; greater than 20 µM against TAOK2.
